These results are taken from the NIST ThermoML archive (doi:10.1016/j.jct.2013.09.026).

Molecules are shown by their SMILES. Numbers after ± are expanded uncertainties.

The conditions of the series: 298.15 K; 101.33 kPa; Liquid; Vibrating tube method.
By mass density is commonly meant the mass of a sample divided by its volume. Consider `CCC(C)=O` [butanone], for which the mass density was 799.969 ± 0.17 kg/m3. For the compound `CCCO` [propan-1-ol], the mass density came to 799.656 ± 0.17 kg/m3.

Turning to `CCN(CC)CC` [triethylamine], the mass density was found to be 722.814 ± 0.19 kg/m3.
